Experiments:
SCC4 cells = assay: Cytotoxicity test (MTT test) on SCC4 cells; type: cell-based, human; conditions: SCC4 cells treated 48 hours, MTT survival rate
Method: (§1) The human oral cancer cells used in the Examples SCC4 and SAS are cultivated in a Dulbecco's Modified Eagle's medium (DMEM) cell culture having 10% fetal bovine serum (FBS). The cells are cultivated in an environment having 5% carbon dioxide in 37 degree Celsius. When enough cells are cultivated, the subsequent analysis and tests are performed.
(§2) The MTT reagent (namely, 3-(4,5-dimethylthiazol)-2,5-diphenyltetrazoliumbromide) is a yellow dye. After the MTT reagents are reacted with succinatedehydrogenase-ubiquinone (SDH) in the mitochondrion and cytochrome C, water insoluble blue-purple crystals are formed. After the crystals are dissolved in DMSO solution, the cell survival condition may be determined by the absorbance of the solution at 570 nm, so that the survival ratio of the cells can be calculated.
(§3) DMEM cell culture without serum are provided for preparing MTT solution having a concentration of 5 milligrams per milliliter. […]
(§4) The SCC4 or SAS cells are planted in a 48-well plate (each having 1×10^4 cells). […] And then, the absorbance of the supernatant at 570 nm can be obtained by an enzyme-linked immunosorbent assay (ELISA) reader (model: VersaMax™ Microplate Reader, Molecular devices, Sunnyvale, USA).

SAS cells = assay: Cytotoxicity test (MTT test) on SAS cells; type: cell-based, human; conditions: SAS cells treated 48 hours, MTT survival rate
Method: as §1, §2, §3, §4

Substance: photosan
- IC50 for SCC4 cells (SCC4 cells): 2.4 microgram per milliliter
- IC50 for SAS cells (SAS cells): 1.75 microgram per milliliter

Substance: pyropheophorbide-phosphatidic acid [pyro-PA]
- IC50 for SCC4 cells (SCC4 cells): 0.8 microgram per milliliter
- IC50 for SAS cells (SAS cells): 0.1 microgram per milliliter

Source: patent publication US10639372B2, “Nucleic acid, medical nanoparticle, and pharmaceutical composition thereof” (Chung Yuan Christian University, priority 2016, dated 2020)
